According to ChEMBL document CHEMBL4118261, “Synthesis, iron binding and antimicrobial properties of hexadentate 3-hydroxypyridinones-terminated dendrimers” (2018):
The source made the active and inactive calls. The calls are words filed in the database; no cut-off is given here.

How the values were obtained:
Pseudomonas aeruginosa = test: Antibacterial activity against Pseudomonas aeruginosa CGMCC 1.2342 assessed as growth inhibition at 100 ug/ml after 24 hrs; type: functional; conditions: for inhibition of growth at 100 µg/mL: CGMCC 1.2342, 24 h, read-out: GI
Staphylococcus aureus = test: Antibacterial activity against Staphylococcus aureus CGMCC 1.0089 assessed as growth inhibition at 100 ug/ml after 24 hrs; type: functional; conditions: for inhibition of growth at 100 µg/mL: CGMCC 1.0089, 24 h, read-out: GI
Escherichia coli = test: Antibacterial activity against Escherichia coli CGMCC 1.0907 assessed as growth inhibition at 100 ug/ml after 24 hrs; type: functional; conditions: for inhibition of growth at 100 µg/mL: CGMCC 1.0907, 24 h, read-out: GI
[1] = Iron chelating activity assessed as pFe3+ by measuring fluorescence intensity of the iron-CP691 complex at 2 uM after 1 month incubation in absence of light using CP691 as fluorescent probe by fluorescence assay relative to CP691 alone
[2] = Binding affinity to Fe3+ at 1:2 compound to ferric ion molar ratio by HR-ESI MS analysis
Bacillus subtilis = test: Antibacterial activity against Bacillus subtilis CGMCC 1.0108 assessed as growth inhibition at 100 ug/ml after 24 hrs; type: functional; conditions: for inhibition of growth at 100 µg/mL: CGMCC 1.0108, 24 h, read-out: GI
[3] = Binding affinity to Fe3+ at 1:1 compound to ferric ion molar ratio by HR-ESI MS analysis
[4] = Metal chelating activity assessed as formation of [Fe3L+H+2Na]3+-compound complex at 1:3 compound to ferric ion molar ratio by HR-ESI MS analysis
[5] = Metal chelating activity assessed as formation of [Fe3L+H+Na]2+-compound complex at 1:3 compound to ferric ion molar ratio by HR-ESI MS analysis
[6] = Binding affinity to Fe3+ at 1:6 compound to ferric ion molar ratio measured after 4 hrs at pH 8.2 to 8.4 measured at 460 nm by UV/Vis spectrophotometry
[7] = Iron chelating activity assessed as pFe3+ by measuring fluorescence intensity of the iron-CP691 complex at 1 uM after 1 month incubation in absence of light using CP691 as fluorescent probe by fluorescence assay relative to CP691 alone
[8] = Binding affinity to Fe3+ at 1:6 compound to ferric ion molar ratio by HR-ESI MS analysis
[9] = Binding affinity to Fe3+ at 1:3 compound to ferric ion molar ratio measured after 4 hrs at pH 8.2 to 8.4 measured at 460 nm by UV/Vis spectrophotometry
[10] = Binding affinity to Fe3+ at 1:9 compound to ferric ion molar ratio by HR-ESI MS analysis
[11] = Iron chelating activity assessed as pFe3+ by measuring fluorescence intensity of the iron-CP691 complex at 0.67 uM after 1 month incubation in absence of light using CP691 as fluorescent probe by fluorescence assay relative to CP691 alone
[12] = Binding affinity to Fe3+ at 1:9 compound to ferric ion molar ratio measured after 4 hrs at pH 8.2 to 8.4 measured at 460 nm by UV/Vis spectrophotometry

| Activity [6] | log(activity) [7] | Activity [8] | Activity [9] | SMILES | growth inhibition (GI) (Pseudomonas aeruginosa) [%] | growth inhibition (GI) (Staphylococcus aureus) [%] | growth inhibition (GI) (Escherichia coli) [%] | log(activity) [1] | Activity [2] | growth inhibition (GI) (Bacillus subtilis) [%] | Activity [3] | Activity [4] | Activity [5] | inhibition of growth at 100 µg/mL (Pseudomonas aeruginosa) [%] | inhibition of growth at 100 µg/mL (Staphylococcus aureus) [%] | inhibition of growth at 100 µg/mL (Escherichia coli) [%] | inhibition of growth at 100 µg/mL (Bacillus subtilis) [%] | Activity [10] | log(activity) [11] | Activity [12] |
| --- | --- | --- | --- | --- | --- | --- | --- | --- | --- | --- | --- | --- | --- | --- | --- | --- | --- | --- | --- | --- |
| – | – | – | – | O=C(CCC(CCC(=O)NCc1c(O)c(=O)ccn1CCO)(CCC(=O)NCc1c(O)c(=O)ccn1CCO)NC(=O)CCNC(=O)CN(CC(=O)NCCC(=O)NC(CCC(=O)NCc1c(O)c(=O)ccn1CCO)(CCC(=O)NCc1c(O)c(=O)ccn1CCO)CCC(=O)NCc1c(O)c(=O)ccn1CCO)CC(=O)NCCC(=O)NC(CCC(=O)NCc1c(O)c(=O)ccn1CCO)(CCC(=O)NCc1c(O)c(=O)ccn1CCO)CCC(=O)NCc1c(O)c(=O)ccn1CCO)NCc1c(O)c(=O)ccn1CCO | 85.3 | 81.7 | 99.7 | 30 | inactive | 95 | inactive | Active | Active | – | – | – | – | – | – | – |
| Active | 30.3 | inactive | – | CCCCn1ccc(=O)c(CNC(=O)CCC(CCC(=O)NCc2c(O)c(=O)ccn2CCCC)(CCC(=O)NCc2c(O)c(=O)ccn2CCCC)NC(=O)CCNC(=O)CCC(CCC(=O)NCCC(=O)NC(CCC(=O)NCc2c(O)n(CCCC)ccc2=O)(CCC(=O)NCc2c(O)c(=O)ccn2CCCC)CCC(=O)NCc2c(O)c(=O)ccn2CCCC)(CCC(=O)NCCC(=O)NC(CCC(=O)NCc2c(O)n(CCCC)ccc2=O)(CCC(=O)NCc2c(O)c(=O)ccn2CCCC)CCC(=O)NCc2c(O)c(=O)ccn2CCCC)NC(=O)CCNC(=O)CCNC(=O)c2ccc(C(=O)NCCC(=O)NCCC(=O)NC(CCC(=O)NCCC(=O)NC(CCC(=O)NCc3c(O)n(CCCC)ccc3=O)(CCC(=O)NCc3c(O)c(=O)ccn3CCCC)CCC(=O)NCc3c(O)c(=O)ccn3CCCC)(CCC(=O)NCCC(=O)NC(CCC(=O)NCc3c(O)n(CCCC)ccc3=O)(CCC(=O)NCc3c(O)c(=O)ccn3CCCC)CCC(=O)NCc3c(O)c(=O)ccn3CCCC)CCC(=O)NCCC(=O)NC(CCC(=O)NCc3c(O)n(CCCC)ccc3=O)(CCC(=O)NCc3c(O)c(=O)ccn3CCCC)CCC(=O)NCc3c(O)c(=O)ccn3CCCC)cc2)c1O | – | – | – | – | – | – | – | – | – | 87.9 | 86.9 | 79.8 | 81.4 | – | – | – |
| – | – | – | – | Cc1c(O)c(=O)ccn1C [DEFERIPRONE] | – | – | – | – | – | – | – | – | – | 79.5 | 74.8 | 89.1 | 77.4 | – | – | – |
| – | – | – | Active | CCCCn1ccc(=O)c(O)c1CNC(=O)CCC(CCC(=O)NCc1c(O)c(=O)ccn1CCCC)(CCC(=O)NCc1c(O)c(=O)ccn1CCCC)NC(=O)CCNC(=O)CN(CC(=O)NCCC(=O)NC(CCC(=O)NCc1c(O)c(=O)ccn1CCCC)(CCC(=O)NCc1c(O)c(=O)ccn1CCCC)CCC(=O)NCc1c(O)c(=O)ccn1CCCC)CC(=O)NCCC(=O)NC(CCC(=O)NCc1c(O)c(=O)ccn1CCCC)(CCC(=O)NCc1c(O)c(=O)ccn1CCCC)CCC(=O)NCc1c(O)c(=O)ccn1CCCC | – | – | – | 30.3 | inactive | – | inactive | Active | Active | 90.4 | 90 | 71.7 | 84.8 | – | – | – |
| – | – | – | – | CCCCn1ccc(=O)c(CNC(=O)CCC(CCC(=O)NCc2c(O)c(=O)ccn2CCCC)(CCC(=O)NCc2c(O)c(=O)ccn2CCCC)NC(=O)CCNC(=O)CCC(CCC(=O)NCCC(=O)NC(CCC(=O)NCc2c(O)n(CCCC)ccc2=O)(CCC(=O)NCc2c(O)c(=O)ccn2CCCC)CCC(=O)NCc2c(O)c(=O)ccn2CCCC)(CCC(=O)NCCC(=O)NC(CCC(=O)NCc2c(O)n(CCCC)ccc2=O)(CCC(=O)NCc2c(O)c(=O)ccn2CCCC)CCC(=O)NCc2c(O)c(=O)ccn2CCCC)NC(=O)CCNC(=O)CCNC(=O)c2cc(C(=O)NCCC(=O)NCCC(=O)NC(CCC(=O)NCCC(=O)NC(CCC(=O)NCc3c(O)n(CCCC)ccc3=O)(CCC(=O)NCc3c(O)c(=O)ccn3CCCC)CCC(=O)NCc3c(O)c(=O)ccn3CCCC)(CCC(=O)NCCC(=O)NC(CCC(=O)NCc3c(O)n(CCCC)ccc3=O)(CCC(=O)NCc3c(O)c(=O)ccn3CCCC)CCC(=O)NCc3c(O)c(=O)ccn3CCCC)CCC(=O)NCCC(=O)NC(CCC(=O)NCc3c(O)n(CCCC)ccc3=O)(CCC(=O)NCc3c(O)c(=O)ccn3CCCC)CCC(=O)NCc3c(O)c(=O)ccn3CCCC)cc(C(=O)NCCC(=O)NCCC(=O)NC(CCC(=O)NCCC(=O)NC(CCC(=O)NCc3c(O)n(CCCC)ccc3=O)(CCC(=O)NCc3c(O)c(=O)ccn3CCCC)CCC(=O)NCc3c(O)c(=O)ccn3CCCC)(CCC(=O)NCCC(=O)NC(CCC(=O)NCc3c(O)n(CCCC)ccc3=O)(CCC(=O)NCc3c(O)c(=O)ccn3CCCC)CCC(=O)NCc3c(O)c(=O)ccn3CCCC)CCC(=O)NCCC(=O)NC(CCC(=O)NCc3c(O)n(CCCC)ccc3=O)(CCC(=O)NCc3c(O)c(=O)ccn3CCCC)CCC(=O)NCc3c(O)c(=O)ccn3CCCC)c2)c1O | 69.9 | 64.5 | 81.2 | – | – | 64.1 | – | – | – | – | – | – | – | inactive | 29.8 | Active |
